Test results as given in patent publication EP1430019B1, “SPHINGOLIPIDS” (priority 2001, dated 2003).
One block for each compound: values may come before it.

Key:
[1] = system: sphingomyelinases; assay: Sphingomyelinase inhibition, HL60 cell sonicate (Table 4, acid or neutral not stated); assay type: biochemical, Human
Description: N-hexyl-sphingosyl phosphorylcholine (AD-2144) was tested as to its inhibitory effect on sphingomyelinases, acidic (i.e., with an optimum at about pH 5) or neutral (with a pH optimum at about pH 7.4). For this purpose a sonicate of HL60 leukemic cells was used as enzyme source. Increasing concentrations of AD-2144 were dispersed by a mixture of fluorescent and non-fluorescent sphingomyelin (Bodipy-C12-SPM:SPM, 1:19), buffer and 0.25% Triton-X100 in a volume of 100 µl. For acid sphingomyelinase 0.4M acetate buffer pH 5.0 was used; for neutral sphingomyelinase 0.2M Tris buffer, pH 7.4 and 5 mM magnesium chloride. To 100 µl of these dispersions, 100 µl of HL60 cells sonicate were added. Incubation was 2-3 hours after which 0.8 ml of chloroform:methanol 2:1 were added, stirred and the lower, chloroform phase was collected, dried and applied to a thin layer chromatography plate. The plate was developed in a mixture of chloroform and methanol, 87:3. The fluorescence of the product, i.e., Bodipy-C12-ceramide, was quantified.
For acid sphingomyelinase as well as for neutral spingomyelinase: at 300 µM of AD-2144 there was a reduction of over 60% in Bodipy-C12-ceramide. […]

[2] = system: HL60 cells; assay: HL60 cell viability, viable cell count with trypan blue; assay type: cell-based, Human
Description: The effect of AD-2646 on cell viability was analyzed by measuring cell mortality (viable cell count) and/or total protein quantity. HL60 cells grown in RMPI plus 10% fetal calf serum, were incubated with increasing concentrations of (2R,3R)-2-(N-tetradecylamine)-1-(4-nitrophenyl)-1,3-propanediol (AD-2646) in 6- or 24-well dishes. […] After 2 days the cells were collected, washed twice with saline, treated with trypan blue and the number of living (non-blue) cells was counted. Fig. 1 indicates an IC50 value of 5 µM.
Kinetic of the observed killing effect of the AD-2646 compound was next examined. HL60 cells were incubated with 40 µM of AD-2646 for 1, 3, 5 and 7 hours. Already after 1 hour a reduction of 60% of the viable cell number was observed.

[3] = system: HL60 cells; assay: HL60 cell viability by total protein content (Bradford); assay type: cell-based, Human; details: for IC50: HL60, 2 days
Description: The effect of the AD-2646 compound on cell viability was further supported when the total protein content was quantified. HL60 cells were incubated as described above, with different concentrations of AD-2646. After 2 days the cells were collected, washed twice with saline, dispersed and following a short pulsing with a probe-sonicator their protein content was quantified by the Bradford procedure. Similarly to the viable cell counting results, the protein measurements indicated an IC50 value of 5 µM.
To analyze whether the AD-2646 compound may mediate its effect on cell viability and on total protein content, in cooperation with other compounds, the cooperative effect of this compound and Taxol was next evaluated. HL60 cells were incubated for two days with 4 µM AD2646 in the presence or absence of 2 ng Taxol. […]
(§1) The effect of different compounds of the invention on cell viability was next evaluated by measuring total cell protein quantity. Different cell lines were incubated for two days in the presence of increasing concentrations of the different compounds of the present invention.

[4] = system: TSU-PR1 cells; assay: TSU-PR1 cytotoxicity by protein content; assay type: cell-based; details: Homo sapiens, 48 h; TSU-PR1, two days, Fig. 2
Description: In order to evaluate the generality of AD-2646 compound effect on cell viability, other cell lines were subjected to the same procedures disclosed herein above.
TSU-PR1 cells (prostate cancer cells) were incubated for two days with increasing concentrations of AD-2646. The protein content measurements shown in Fig. 2 indicate that the cells were killed with an IC50 of 6-7 µM.

[5] = system: Bod3-SPM; assay: Sphingolipid metabolism from Bodipy-C3-ceramide in HL60 cells: Bod3-SPM; assay type: cell-based, Human; details: for IC50: Homo sapiens, HL-60, 3 h, HL60, 3 hours, 2.5 µM Bodipy-C3-ceramide, cell + medium, read-out: Bod 3-SPM (IC50 for reduction); for inhibition of Bod3-SPM (fluorescent image): HL60, 10 µM
Description: (§2) In order to examine the effect of the different compounds on sphingolipids metabolism, different cell lines were incubated with increasing concentrations of different compounds of the invention in the presence of 2.5 µM Bodipy-C3-ceramide that was added to the culture medium as a solution in dimethylsulfoxide (not exceeding 0.1% DMSO of the final volium). After 3 hours, cells and medium were collected and centrifuged. Cells were next extracted with chloroform- methanol containing 2% acetic acid 1:1 (by volume) and the medium was shaken with an equal volume of chloroform-methanol, 1:1 (by volume). The phases were separated by centrifugation and the lower chloroform phase was collected. The solvents were evaporated and applied to thin layer chromatography silica gel plates (Whatman 4865-821) with a concentrating zone.
(§3) Plates were developed as follows: For medium: in chloroform-methanol-H2O, 75:25:4 by volume. For cells: plates were first developed with chloroform-methanol, 9:1, then dried and re-run in chloroform-methanol: H2O, 65:35:4.
(§4) Standards of Bodipy-C3-ceramide: Bodipy-C3-glucosylceramide (Bod3-GC) and Bodipy C3 sphingomyelin (Bod3-SPM) were used as markers. The fluorescence of the respective Bod3-SPM and Bod3-GC spots was quantified using a Fuji FLA-2000 scanner.

[6] = system: Bod3-SPM; assay: Sphingolipid metabolism from Bodipy-C3-ceramide in TSU-PR1 cells: Bod3-SPM; assay type: cell-based; details: Homo sapiens; TSU-PR1, 3 hours, Fig. 5; read-out: reduction of Bod3-SPM, IC50
Description: as §2, §3, §4
The effect of AD-2646 on sphingolipid metabolism was further examined using TSU-PR1 prostate cancer cells. […]

[7] = system: Swiss mice; assay: In vivo toxicity, mice viability
Description: Six groups, each of 5 Swiss mice were injected, intra-peritoneally with solutions of AD-2646, at varying concentrations, each in a volume of 100 µl. Injections were performed on days 1, 2, 3, 4, and mice viability was tested (Table 5).

[8] = system: MCF7-AdrR; assay: Cell viability by total cell protein quantity, MCF7-AdrR; assay type: cell-based; details: Homo sapiens, 48 h, two days
Description: as §1

[9] = system: MCF7-NCi; assay: Cell viability by total cell protein quantity, MCF7-NCi; assay type: cell-based; details: Homo sapiens, 48 h, two days
Description: as §1

[10] = system: U937 cells; assay: Apoptosis in U937 cells, DEVDase/caspase 3 activity kit; assay type: cell-based; details: Homo sapiens, U-937; U937, 5 µM, 24 hours; read-out: number of apoptotic cells relative to control cells
Description: Myeloid, leukemic U937 cells were incubated for 24 hours in the absence or in the presence of 5 µM AD-2672 and AD-2665. Cells were then collected and the percent of apoptotic cells was determined using a kit quantifying the DEVDase, caspase 3 activity. The number of apoptotic cells incubated with AD-2672 exceeded 6-fold those in the control cells. Cells incubated with AD-2665 exceeded 2.8-fold those in the control cells.

[11] = system: Bod 3-SPM; assay: Sphingolipid metabolism from Bodipy-C3-ceramide in MCF-NCi cells: Bod3-SPM; assay type: cell-based; details: Homo sapiens, 3 hours, 2.5 µM Bodipy-C3-ceramide, read-out: Bod 3-SPM (IC50 for reduction)
Description: as §2, §3, §4

[12] = system: Bod 3-GC; assay: Sphingolipid metabolism from Bodipy-C3-ceramide in MCF-NCi cells: Bod3-GC; assay type: cell-based; details: Homo sapiens, 3 hours, 2.5 µM Bodipy-C3-ceramide, read-out: Bod 3-GC (IC50 for reduction)
Description: as §2, §3, §4

[13] = target: T1, Bod3-GC (Homo sapiens, UniProt Q16739); assay: Sphingolipid metabolism from Bodipy-C3-ceramide in HL60 cells: Bod3-GC; assay type: cell-based; details: HL60, 10 µM, Fig. 6
T1 sequence (Q16739 1-394): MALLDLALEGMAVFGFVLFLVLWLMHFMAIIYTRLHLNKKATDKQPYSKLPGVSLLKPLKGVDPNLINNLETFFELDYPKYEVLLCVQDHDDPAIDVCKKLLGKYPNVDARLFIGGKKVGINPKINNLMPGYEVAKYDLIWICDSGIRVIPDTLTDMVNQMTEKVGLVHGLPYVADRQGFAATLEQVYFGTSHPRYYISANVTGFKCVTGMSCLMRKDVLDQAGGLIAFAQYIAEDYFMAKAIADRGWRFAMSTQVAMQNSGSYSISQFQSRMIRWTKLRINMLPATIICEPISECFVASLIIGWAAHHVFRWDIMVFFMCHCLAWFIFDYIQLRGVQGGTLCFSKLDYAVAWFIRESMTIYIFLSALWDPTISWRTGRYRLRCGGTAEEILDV
Description: as §2, §3, §4

[14] = system: Leishmania major promastigote; assay: Leishmania major promastigote cell count; assay type: cell-based; details: promastigotes, 3 h, 27°C, cell counting; read-out: IC50 for cell reduction
Description: 2 × 10^5 Leishmania major promastigote cell, each in a volume of 100 µl were added to 100 µl medium (RPMI 1640 culture medium complemented with 20% FCS, 1% penicillin and 1% streptomycin) in 96-well plates containing zero and increasing concentrations of (2S,3R)-2-N-aminohexyl-1-(4-N-hexylamiuophenyl)-1,3-propanediol (AD-2663) in 2-fold serial dilution. After incubation period (3 h, 27°C) the number of cells was determined by counting on aliquot from each well on a Neulander cell counter under a microscope. The IC50 for cell reduction was 7 µM.

Compound: CCCCCCCCCCCCC/C=C/[C@H](O)[C@@H](COP(=O)([O-])OCC[N+](C)(C)C)NCCCCCC [AD-2144, N-hexyl-sphingosyl phosphorylcholine]
% reduction in Bodipy-C12-ceramide ([1]; AD-2144 concentration 50µl): 30% | % reduction in Bodipy-C12-ceramide ([1]; AD-2144 concentration 100µl): 44% | % reduction in Bodipy-C12-ceramide ([1]; AD-2144 concentration 150µl): 65% | % reduction in Bodipy-C12-ceramide ([1]; AD-2144 concentration 300µl): 82%

Compound: CCCCCCCCCCCCCCN[C@H](CO)[C@H](O)c1ccc([N+](=O)[O-])cc1 [AD-2646, (2R, 3R)-2-(N-tetradecylamine)-1-(4-nitrophenyl)-1,3-propanediol]
reduction of the viable cell number ([2]; HL60, 40 µM, after 1 hour): 60% | IC50 ([2]; Homo sapiens, HL-60, 48 h, HL60, 2 days, trypan blue, Fig. 1): 5 µM | Protein content ([3]; HL60, two days, 4 µM AD2646 alone): 174 µg | IC50 ([3]; Homo sapiens, HL-60, 48 h): 5 µM | IC50 [4]: 6 to 7 µM | IC50 [5]: ~6 µM | IC50 [6]: ~5 µM | No. of mice in each day ([7]; 1mg/kg intra-peritoneally on days 1-4, group of 5, day 1): 5 | No. of mice in each day ([7]; 1mg/kg intra-peritoneally on days 1-4, group of 5, day 2): 5 | No. of mice in each day ([7]; 1mg/kg intra-peritoneally on days 1-4, group of 5, day 3): 5 | No. of mice in each day ([7]; 1mg/kg intra-peritoneally on days 1-4, group of 5, day 4): 5 | No. of mice in each day ([7]; 1mg/kg intra-peritoneally on days 1-4, group of 5, day 5): 5 | No. of mice in each day ([7]; 1mg/kg intra-peritoneally on days 1-4, group of 5, day 6): 5 | No. of mice in each day ([7]; 5mg/kg intra-peritoneally on days 1-4, group of 5, day 1): 5 | No. of mice in each day ([7]; 5mg/kg intra-peritoneally on days 1-4, group of 5, day 2): 5 | No. of mice in each day ([7]; 5mg/kg intra-peritoneally on days 1-4, group of 5, day 3): 5 | No. of mice in each day ([7]; 5mg/kg intra-peritoneally on days 1-4, group of 5, day 4): 5 | No. of mice in each day ([7]; 5mg/kg intra-peritoneally on days 1-4, group of 5, day 5): 5 | No. of mice in each day ([7]; 5mg/kg intra-peritoneally on days 1-4, group of 5, day 6): 5

Compound: (2R, 3S)-2-BOC-amino-1-[4-N-(dodecanoyl-12-N-BOC-amine)-phenyl)-1,3-propanediol [AD-2620]
IC50 [3]: 3 µM

Compound: CCCCCCCCCCCC(=O)Nc1ccc([C@H](O)[C@@H](N)CO)cc1 [AD-2674]
inhibition of Bod3-SPM (fluorescent image) ([5]; Fig. 6): low inhibition of Bod3-SPM | reduction of the level of Bod3-GC (fluorescent image) [13]: much stronger reduction of the level of Bod3-GC

Compound: CCCCCCNc1ccc([C@@H](O)[C@H](CO)NCCCCCC)cc1 [AD-2663, (2S,3R)-2-N-aminohexyl-1-(4-N-hexylamiuophenyl)-1,3-propanediol]
IC50 [14]: 7 µM

The next lines start with results.

IC50 [8]: 7 µM | IC50 [9]: 3 µM | IC50 [5]: 4 µM | IC50 [11]: 7 µM | IC50 [12]: 10 µM
Compound: CCCCCCNc1ccc([C@@H](O)[C@@H](CO)NCCCCCC)cc1 [AD-2665, (2R,3R)-2-(N-hexylamine)-1-(4-N-hexylaminophenyl)-1,3-propanediol]
fold induction at 5 µM [10]: 2.8

IC50 ([3]; Homo sapiens, HL-60, 48 h): 7.5 µM | IC50 [5]: 6 µM
Compound: CCCCCCCCCCCC(=O)Nc1ccc([C@@H](O)[C@H](N)CO)cc1 [AD-2673]
inhibition of Bod3-SPM (fluorescent image) ([5]; Fig. 6): low inhibition of Bod3-SPM | reduction of the level of Bod3-GC (fluorescent image) [13]: much stronger reduction of the level of Bod3-GC

IC50 [5]: 4 µM
Compound: CCCCCCCCCCCCCCN[C@H](CO)[C@H](O)c1ccc(N)cc1 [AD-2672, (2R,3R)-2-(N-tetradecylamine)-1-(4-aminophenyl)-1,3-propanediol]
fold induction at 5 µM [10]: 6 | level of Bod3-SPM (fluorescent image) ([5]; HL60, 5 and 10 µM, Fig. 6): strongly reduces the level of Bod3-SPM
